One assay has as its target T1, CDK1/Cyclin B (Homo sapiens, UniProt P06493).
T1 construct: purchased Invitrogen PR4768C
In words: Enzymatic assay for CDK1 (FRET based LANCE Ultra kinase assay). Type of assay: biochemical. To be noted: read-out: CDK1 enzymatic activity (IC50 range). A digest of the protocol:
(§1)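 TR-FRET (LANCE Ultra) kinase assay at ATP Km, ULight-MBP peptide substrate (68 nM), 8-dose 4-fold compound series in DMSO. Enzymes: […]; 60 min at 23° C., stopped with EDTA plus Eu-anti-phospho-MBP antibody, read 665/615 nm after 60 min.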

A further assay concerns the target T2, CDK2/Cyclin A (Homo sapiens, UniProt P24941).
T2 construct: purchased Invitrogen PV6290
Kind of assay: Enzymatic assay for CDK2 (FRET based LANCE Ultra kinase assay). It is filed as biochemical. To be noted: read-out: CDK2 enzymatic activity (IC50 range). An outline of the steps: as §1
Background: In TR-FRET formats the signal depends on donor and acceptor labels being close together.

Another assay deals with T3, CDK5/p25 (Homo sapiens, UniProt Q00535).
T3 construct: purchased Invitrogen PR8543B
T3 sequence (Q00535 whole entry): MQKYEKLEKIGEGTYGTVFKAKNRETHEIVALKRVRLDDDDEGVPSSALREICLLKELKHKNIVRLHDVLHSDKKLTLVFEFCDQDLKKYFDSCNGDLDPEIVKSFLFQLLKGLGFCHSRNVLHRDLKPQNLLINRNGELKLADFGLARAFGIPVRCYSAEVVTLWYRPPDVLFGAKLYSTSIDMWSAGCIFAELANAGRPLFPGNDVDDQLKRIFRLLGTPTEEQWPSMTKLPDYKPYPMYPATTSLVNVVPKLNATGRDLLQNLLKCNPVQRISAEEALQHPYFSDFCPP
T3 sequence (Q15078 99-307 partner limits assumed): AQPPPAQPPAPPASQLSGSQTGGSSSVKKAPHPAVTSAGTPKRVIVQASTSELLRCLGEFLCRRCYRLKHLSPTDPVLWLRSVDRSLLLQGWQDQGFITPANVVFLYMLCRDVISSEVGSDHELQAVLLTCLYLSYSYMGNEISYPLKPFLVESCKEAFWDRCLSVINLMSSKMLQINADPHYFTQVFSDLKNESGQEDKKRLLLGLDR
Kind of assay: Enzymatic assay for CDK5 (FRET based LANCE Ultra kinase assay). Type of assay: biochemical. To be noted: read-out: CDK5 enzymatic activity (IC50 range). A digest of the protocol: as §1

In a further assay the target is T4, CDK7/Cyclin H/MNAT1 (Homo sapiens, UniProt P50613).
T4 construct: purchased Invitrogen PR6749B
T4 sequence (P50613 whole entry): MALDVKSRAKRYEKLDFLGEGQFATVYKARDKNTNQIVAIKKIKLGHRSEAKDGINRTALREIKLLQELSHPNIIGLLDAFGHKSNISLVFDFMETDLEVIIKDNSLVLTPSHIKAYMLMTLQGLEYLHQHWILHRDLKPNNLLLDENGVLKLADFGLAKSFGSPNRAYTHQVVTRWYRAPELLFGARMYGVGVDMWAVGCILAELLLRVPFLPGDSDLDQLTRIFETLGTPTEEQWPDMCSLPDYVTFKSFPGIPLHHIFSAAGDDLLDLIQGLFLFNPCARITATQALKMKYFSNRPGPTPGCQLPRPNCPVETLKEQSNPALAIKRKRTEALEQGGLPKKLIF
T4 sequence (P51946 whole entry partner): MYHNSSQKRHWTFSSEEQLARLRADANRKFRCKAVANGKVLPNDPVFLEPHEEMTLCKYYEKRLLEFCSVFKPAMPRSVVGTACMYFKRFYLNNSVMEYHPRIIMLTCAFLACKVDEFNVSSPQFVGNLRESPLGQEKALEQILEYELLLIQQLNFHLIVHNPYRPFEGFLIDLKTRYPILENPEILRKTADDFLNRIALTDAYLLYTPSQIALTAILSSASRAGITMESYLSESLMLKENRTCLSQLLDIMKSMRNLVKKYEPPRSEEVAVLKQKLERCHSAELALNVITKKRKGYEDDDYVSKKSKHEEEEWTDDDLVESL
T4 sequence (P51948 whole entry partner): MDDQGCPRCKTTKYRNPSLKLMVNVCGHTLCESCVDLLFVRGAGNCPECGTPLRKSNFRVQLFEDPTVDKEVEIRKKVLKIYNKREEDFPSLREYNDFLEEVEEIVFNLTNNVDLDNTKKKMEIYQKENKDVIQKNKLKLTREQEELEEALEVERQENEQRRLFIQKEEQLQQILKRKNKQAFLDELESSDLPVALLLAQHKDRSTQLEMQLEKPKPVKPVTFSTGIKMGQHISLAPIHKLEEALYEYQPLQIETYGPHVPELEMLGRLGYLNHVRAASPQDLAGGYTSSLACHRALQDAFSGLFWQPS
In words: Enzymatic assay for CDK7 (FRET based LANCE Ultra kinase assay). The following applies: for IC50: read-out: CDK7 enzymatic activity (IC50 range). It is filed as biochemical. A digest of the protocol: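 LANCE Ultra TR-FRET kinase assay using a ULight-labeled peptide substrate and a Eu-labeled anti-phospho antibody, with ATP at its Km. Purified CDK/cyclin complex was added to compound after brief centrifugation.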

The test system of the next assay is H460. Kind of assay: Cellular H460 viability assay (CellTiter-Glo, 72 hours). It is filed as cell-based. The following applies: Homo sapiens, NCI-H460. An outline of the steps: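 72 h treatment, 37 °C, 5% CO2; DMSO ctrl, final <0.1%; CellTiter-Glo luminescence; n=2.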
For orientation: ATP-based viability assays read luminescence as a measure of living cells.

The subject of a further assay is RPMI-8226. Kind of assay: Cellular RPMI-8226 viability assay (CellTiter-Glo, 72 hours). The following applies: Homo sapiens. It is filed as cell-based. The method, then: All cell lines were routinely tested for mycoplasma.
The effect of the CDK7 inhibitor to inhibit the growth of target cancer cells was evaluated through the 72 hours time period of viability assay. Briefly, the candidate cell line ware plated in 96 well plate at the following density of cells respectively. […] DMSO solvent without compound served as a control and final DMSO concentration less than 0.1%. After 72 hours of incubation at 37° C., 5% CO2 incubator, cells were analyzed for the viability using the CellTiter-Glo Luminescent Cell Viability Assay (Promega, Cat #G7570). All viability assays were performed in duplicate and Luminescence was read using an Envision (Perkin Elmer, USA). Data was analyzed using XLfit software.

T1 sequence (P06493 whole entry): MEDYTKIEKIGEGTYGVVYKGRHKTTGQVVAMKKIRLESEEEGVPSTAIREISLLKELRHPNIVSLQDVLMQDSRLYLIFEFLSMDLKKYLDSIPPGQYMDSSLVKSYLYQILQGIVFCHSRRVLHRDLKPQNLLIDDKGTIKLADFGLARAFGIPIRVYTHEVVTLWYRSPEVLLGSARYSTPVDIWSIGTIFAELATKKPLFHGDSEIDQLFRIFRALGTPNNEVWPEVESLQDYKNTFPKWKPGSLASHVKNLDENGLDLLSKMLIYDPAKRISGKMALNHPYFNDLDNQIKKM
T1 sequence (P14635 whole entry partner): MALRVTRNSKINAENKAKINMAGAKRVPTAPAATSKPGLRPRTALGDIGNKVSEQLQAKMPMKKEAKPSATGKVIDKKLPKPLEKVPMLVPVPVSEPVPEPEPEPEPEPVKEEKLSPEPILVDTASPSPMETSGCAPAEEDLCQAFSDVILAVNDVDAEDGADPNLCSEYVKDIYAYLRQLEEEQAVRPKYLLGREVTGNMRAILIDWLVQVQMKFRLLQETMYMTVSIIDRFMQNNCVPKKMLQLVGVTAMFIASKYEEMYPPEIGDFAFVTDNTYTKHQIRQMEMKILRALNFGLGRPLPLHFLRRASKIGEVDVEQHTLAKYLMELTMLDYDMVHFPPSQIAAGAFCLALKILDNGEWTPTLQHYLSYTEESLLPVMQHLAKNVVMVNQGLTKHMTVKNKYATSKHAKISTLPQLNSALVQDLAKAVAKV

In the case of `CC(C)c1cnn2c(NCc3cccc4ccc(N)nc34)nc(N3CCC(N)CC3)nc12` [Compound 142], the IC50 is > 1 µM at CDK1/Cyclin B; 0.1 to 1 µM on CDK2/Cyclin A; 0.1 to 1 µM on CDK5/p25; < 0.1 µM on CDK7/Cyclin H/MNAT1; 1 to 10 µM in the assay with H460; 1 to 10 µM with RPMI-8226. At CDK7/Cyclin H/MNAT1, the “CDK1/CDK7: Selectivity of CDK7 inhibition over CDK1 inhibition” value is given as “A (A=greater than 200 fold)”. Also, at CDK7/Cyclin H/MNAT1, the “CDK2/CDK7: Selectivity of CDK7 inhibition over CDK2 inhibition” value is on record as “B (B=less than 200 fold, but greater than 20 fold)”. Besides, on CDK7/Cyclin H/MNAT1, the “CDK5/CDK7: Selectivity of CDK7 inhibition over CDK5 inhibition” value is recorded as “B (B=less than 200 fold, but greater than 20 fold)”.

`CC(C)c1cnn2c(NCc3cccc(-c4cc5ccccc5[nH]4)c3)nc(N3CCC(N)CC3)nc12` [Compound 118]: the concentration for half-maximal inhibition (IC50) on CDK1/Cyclin B is > 1 µM; at CDK2/Cyclin A, 0.1 to 1 µM; at CDK5/p25, 0.1 to 1 µM; on CDK7/Cyclin H/MNAT1, < 0.1 µM; with H460 it was < 1 µM; in the assay on RPMI-8226, < 1 µM. At CDK7/Cyclin H/MNAT1, the “CDK1/CDK7: Selectivity of CDK7 inhibition over CDK1 inhibition” value is listed as “B (B=less than 200 fold, but greater than 20 fold)”. Further, the “CDK2/CDK7: Selectivity of CDK7 inhibition over CDK2 inhibition” value on CDK7/Cyclin H/MNAT1 is recorded as “B (B=less than 200 fold, but greater than 20 fold)”. Further, the “CDK5/CDK7: Selectivity of CDK7 inhibition over CDK5 inhibition” value on CDK7/Cyclin H/MNAT1 was “B (B=less than 200 fold, but greater than 20 fold)”.

As for `CC(C)c1cnn2c(NCc3ccccc3-c3ccc4[nH]c(NC(=O)C5CC5)nc4c3)nc(N3CCC(N)CC3)nc12` [Compound 141], the IC50 on CDK1/Cyclin B is 0.1 to 1 µM; at CDK2/Cyclin A, 0.1 to 1 µM; at CDK5/p25, < 0.1 µM; at CDK7/Cyclin H/MNAT1, < 0.1 µM; with H460, 1 to 10 µM; in the assay with RPMI-8226, < 1 µM. In addition, the “CDK1/CDK7: Selectivity of CDK7 inhibition over CDK1 inhibition” value on CDK7/Cyclin H/MNAT1 is listed as “B (B=less than 200 fold, but greater than 20 fold)”. Also, the “CDK2/CDK7: Selectivity of CDK7 inhibition over CDK2 inhibition” value at CDK7/Cyclin H/MNAT1 is recorded as “B (B=less than 200 fold, but greater than 20 fold)”. Moreover, on CDK7/Cyclin H/MNAT1, the “CDK5/CDK7: Selectivity of CDK7 inhibition over CDK5 inhibition” value was “C (C=less than 20 fold)”.

On to `CC(=O)c1ccc2nn(-c3ccccc3CNc3nc(N4CCC(N)CC4)nc4c(C(C)C)cnn34)cc2c1` [Compound 127], for which the IC50 at CDK1/Cyclin B was > 1 µM; at CDK2/Cyclin A, 0.1 to 1 µM; on CDK5/p25 it was 0.1 to 1 µM; at CDK7/Cyclin H/MNAT1, < 0.1 µM; with H460 it was < 1 µM; in the assay with RPMI-8226, < 1 µM. Further, the “CDK1/CDK7: Selectivity of CDK7 inhibition over CDK1 inhibition” value on CDK7/Cyclin H/MNAT1 is recorded as “A (A=greater than 200 fold)”. The “CDK2/CDK7: Selectivity of CDK7 inhibition over CDK2 inhibition” value at CDK7/Cyclin H/MNAT1 is “B (B=less than 200 fold, but greater than 20 fold)”. For the same molecule, at CDK7/Cyclin H/MNAT1, the “CDK5/CDK7: Selectivity of CDK7 inhibition over CDK5 inhibition” value was “B (B=less than 200 fold, but greater than 20 fold)”.

With `CC(C)c1cnn2c(NCc3ccccc3N3CC4CCCCC4C3)nc(N3CCC(N)CC3)nc12` (centres unmarked) [Compound 135], the IC50 was > 1 µM on CDK1/Cyclin B; > 1 µM at CDK2/Cyclin A; > 1 µM at CDK5/p25; < 0.1 µM on CDK7/Cyclin H/MNAT1; 1 to 10 µM with H460; 1 to 10 µM in the assay with RPMI-8226. Further, the “CDK1/CDK7: Selectivity of CDK7 inhibition over CDK1 inhibition” value at CDK7/Cyclin H/MNAT1 was “A (A=greater than 200 fold)”. The “CDK2/CDK7: Selectivity of CDK7 inhibition over CDK2 inhibition” value on CDK7/Cyclin H/MNAT1 was “B (B=less than 200 fold, but greater than 20 fold)”. The “CDK5/CDK7: Selectivity of CDK7 inhibition over CDK5 inhibition” value on CDK7/Cyclin H/MNAT1 is listed as “B (B=less than 200 fold, but greater than 20 fold)”.

Regarding `CC(C)c1cnn2c(NCc3ccccc3-c3ccc4c(c3)CC(=O)N4)nc(N3CCC(N)CC3)nc12` [Compound 17], the IC50 on CDK1/Cyclin B is > 1 µM; on CDK2/Cyclin A, 0.1 to 1 µM; at CDK5/p25, 0.1 to 1 µM; at CDK7/Cyclin H/MNAT1, < 0.1 µM; in the assay with H460 it was 1 to 10 µM; in the assay on RPMI-8226 it was 1 to 10 µM. The “CDK1/CDK7: Selectivity of CDK7 inhibition over CDK1 inhibition” value at CDK7/Cyclin H/MNAT1 is “B (B=less than 200 fold, but greater than 20 fold)”. In addition, the “CDK2/CDK7: Selectivity of CDK7 inhibition over CDK2 inhibition” value at CDK7/Cyclin H/MNAT1 is reported as “B (B=less than 200 fold, but greater than 20 fold)”. Also, on CDK7/Cyclin H/MNAT1, the “CDK5/CDK7: Selectivity of CDK7 inhibition over CDK5 inhibition” value is reported as “C (C=less than 20 fold)”.

With `CC(C)c1cnn2c(NCc3ccccc3-c3ccc4c(c3)NC(=O)C(C)(C)O4)nc(N3CCC(N)CC3)nc12` [Compound 138], the 50% inhibitory concentration (IC50) was 0.1 to 1 µM on CDK1/Cyclin B; 0.1 to 1 µM on CDK2/Cyclin A; < 0.1 µM at CDK5/p25; < 0.1 µM on CDK7/Cyclin H/MNAT1; < 1 µM in the assay with H460; < 1 µM in the assay with RPMI-8226. The “CDK1/CDK7: Selectivity of CDK7 inhibition over CDK1 inhibition” value at CDK7/Cyclin H/MNAT1 is reported as “A (A=greater than 200 fold)”. Besides, on CDK7/Cyclin H/MNAT1, the “CDK2/CDK7: Selectivity of CDK7 inhibition over CDK2 inhibition” value is on record as “B (B=less than 200 fold, but greater than 20 fold)”. The “CDK5/CDK7: Selectivity of CDK7 inhibition over CDK5 inhibition” value at CDK7/Cyclin H/MNAT1 was “C (C=less than 20 fold)”.

For `CC(C)c1cnn2c(NCc3ccccc3-c3cc4ccccc4[nH]3)nc(N3CCC[C@@H](N)C3)nc12` [Compound 131], the 50% inhibitory concentration (IC50) was > 1 µM on CDK1/Cyclin B; > 1 µM on CDK2/Cyclin A; > 1 µM on CDK5/p25; < 0.1 µM at CDK7/Cyclin H/MNAT1; 1 to 10 µM in the assay with RPMI-8226. The “CDK1/CDK7: Selectivity of CDK7 inhibition over CDK1 inhibition” value at CDK7/Cyclin H/MNAT1 is on record as “B (B=less than 200 fold, but greater than 20 fold)”. The “CDK2/CDK7: Selectivity of CDK7 inhibition over CDK2 inhibition” value at CDK7/Cyclin H/MNAT1 was “B (B=less than 200 fold, but greater than 20 fold)”. The “CDK5/CDK7: Selectivity of CDK7 inhibition over CDK5 inhibition” value at CDK7/Cyclin H/MNAT1 was “B (B=less than 200 fold, but greater than 20 fold)”.

As to `CC(C)c1cnn2c(NCc3ccccc3-c3cc4cc([N+](=O)[O-])ccc4[nH]3)nc(N3CCC(N)CC3)nc12` [Compound 121], the IC50 is > 1 µM at CDK1/Cyclin B; 0.1 to 1 µM at CDK2/Cyclin A; 0.1 to 1 µM at CDK5/p25; < 0.1 µM at CDK7/Cyclin H/MNAT1; < 1 µM with H460; < 1 µM in the assay on RPMI-8226. Also, the “CDK1/CDK7: Selectivity of CDK7 inhibition over CDK1 inhibition” value at CDK7/Cyclin H/MNAT1 is recorded as “A (A=greater than 200 fold)”. The “CDK2/CDK7: Selectivity of CDK7 inhibition over CDK2 inhibition” value at CDK7/Cyclin H/MNAT1 is reported as “B (B=less than 200 fold, but greater than 20 fold)”. For the same molecule, the “CDK5/CDK7: Selectivity of CDK7 inhibition over CDK5 inhibition” value on CDK7/Cyclin H/MNAT1 is recorded as “B (B=less than 200 fold, but greater than 20 fold)”.

Turning to `CC(C)c1cnn2c(NCc3ccccc3-n3cc4c(n3)CCC(=O)C4)nc(N3CCC(N)CC3)nc12` [Compound 132], the IC50 was > 1 µM at CDK1/Cyclin B; > 1 µM on CDK2/Cyclin A; 0.1 to 1 µM on CDK5/p25; < 0.1 µM on CDK7/Cyclin H/MNAT1; 1 to 10 µM in the assay with H460; 1 to 10 µM in the assay with RPMI-8226. The “CDK1/CDK7: Selectivity of CDK7 inhibition over CDK1 inhibition” value at CDK7/Cyclin H/MNAT1 is “A (A=greater than 200 fold)”. Besides, the “CDK2/CDK7: Selectivity of CDK7 inhibition over CDK2 inhibition” value at CDK7/Cyclin H/MNAT1 is listed as “B (B=less than 200 fold, but greater than 20 fold)”. Further, on CDK7/Cyclin H/MNAT1, the “CDK5/CDK7: Selectivity of CDK7 inhibition over CDK5 inhibition” value is listed as “B (B=less than 200 fold, but greater than 20 fold)”.

Turning to `CC(C)c1cnn2c(NCc3ccccc3-n3cc4cccc(NC(=O)CCCN(C)C)c4n3)nc(N3CCC(N)CC3)nc12` [Compound 126], the IC50 was > 1 µM on CDK1/Cyclin B; 0.1 to 1 µM on CDK2/Cyclin A; 0.1 to 1 µM on CDK5/p25; < 0.1 µM on CDK7/Cyclin H/MNAT1; < 1 µM with H460; < 1 µM in the assay on RPMI-8226. Further, the “CDK1/CDK7: Selectivity of CDK7 inhibition over CDK1 inhibition” value at CDK7/Cyclin H/MNAT1 is on record as “A (A=greater than 200 fold)”. In addition, the “CDK2/CDK7: Selectivity of CDK7 inhibition over CDK2 inhibition” value at CDK7/Cyclin H/MNAT1 is on record as “B (B=less than 200 fold, but greater than 20 fold)”. In addition, the “CDK5/CDK7: Selectivity of CDK7 inhibition over CDK5 inhibition” value on CDK7/Cyclin H/MNAT1 was “B (B=less than 200 fold, but greater than 20 fold)”.

Broadly, the IC50 is the concentration that inhibits the measured activity by half.
